From patent publication US20060148858A1, “1, 2-Azole derivatives with hypoglycemic and hypolipidemic activity” (priority 2002, published 2006)

melting point | SMILES
121 to 122 °C | CCOc1nn(-c2cc(C(F)(F)F)ccn2)cc1CCCOc1ccccc1CC(=O)O [Example 288, [2-(3-{3-ethoxy-1-[4-(trifluoromethyl)-2-pyridinyl]-1H-pyrazol-4-yl}propoxy)phenyl]acetic acid]
98 to 99 °C | CCOc1nn(-c2cc(C(F)(F)F)ccn2)cc1CCCOc1cccc(OC(C)(C)C(=O)O)c1 [Example 289, 2-[3-(3-{3-ethoxy-1-[4-(trifluoromethyl)-2-pyridinyl]-1H-pyrazol-4-yl}propoxy)phenoxy]-2-methylpropanoic acid]
95 to 96 °C | CCCc1nn(-c2ccc(C(F)(F)F)cc2)cc1CCCOc1c(CC(=O)O)cccc1OC [Example 297, [3-methoxy-2-(3-{3-propyl-1-[4-(trifluoromethyl)phenyl]-1H-pyrazol-4-yl}propoxy)phenyl]acetic acid]
119 to 120 °C | CCOc1cc(OCCCc2cn(-c3cc(C(F)(F)F)ccn3)nc2OCC)ccc1CCC(=O)O [Example 298, 3-[2-ethoxy-4-(3-{3-ethoxy-1-[4-(trifluoromethyl)-2-pyridinyl]-1H-pyrazol-4-yl}propoxy)phenyl]propanoic acid]
114 to 115 °C | CCOc1cccc(CC(=O)O)c1OCCCc1cn(-c2ccc(C(F)(F)F)cn2)nc1OCC [Example 301, [3-ethoxy-2-(3-{3-ethoxy-1-[5-(trifluoromethyl)-2-pyridinyl]-1H-pyrazol-4-yl}propoxy)phenyl]acetic acid]
141 to 142 °C | CC(C)c1nn(-c2ccc(Cl)cn2)cc1CCCOc1ccccc1CC(=O)O [Example 308, (2-{3-[1-(5-chloro-2-pyridinyl)-3-isopropyl-1H-pyrazol-4-yl]propoxy}phenyl)acetic acid]
140 to 142 °C | CC(C)c1nn(-c2ccccn2)cc1CCCOc1ccccc1CC(=O)O [Example 309, (2-{3-[3-isopropyl-1-(2-pyridinyl)-1H-pyrazol-4-yl]propoxy}phenyl)acetic acid]
124 to 125 °C | CC(C)c1nn(-c2ccc(C(F)(F)F)cn2)cc1CCCOc1nn(C)cc1CCC(=O)O [Example 310, 3-[3-(3-{3-isopropyl-1-[5-(trifluoromethyl)-2-pyridinyl]-1H-pyrazol-4-yl}propoxy)-1-methyl-1H-pyrazol-4-yl]propanoic acid]
102 to 104 °C | COc1cccc(CC(=O)O)c1OCCCc1cn(-c2ccccn2)nc1C(C)C [Example 312, (2-{3-[3-isopropyl-1-(2-pyridinyl)-1H-pyrazol-4-yl]propoxy}-3-methoxyphenyl)acetic acid]
103 to 104 °C | CCCc1nn(-c2ccc(C(F)(F)F)cn2)cc1CCCOc1nn(C)cc1CCC(=O)O [Example 314, 3-[1-methyl-3-(3-{3-propyl-1-[5-(trifluoromethyl)-2-pyridinyl]-1H-pyrazol-4-yl}propoxy)-1H-pyrazol-4-yl]propanoic acid]
116 to 117 °C | CC(C)c1nn(-c2ccc(C(F)(F)F)cn2)cc1CCCOc1nn(C2CCCCC2)cc1CC(=O)O [Example 317, [1-cyclohexyl-3-(3-{3-isopropyl-1-[5-(trifluoromethyl)-2-pyridinyl]-1H-pyrazol-4-yl}propoxy)-1H-pyrazol-4-yl]acetic acid]
127 to 128 °C | CCCc1nn(-c2ccc(C(F)(F)F)cn2)cc1CCCOc1nn(C2CCCCC2)cc1CC(=O)O [Example 320, [1-cyclohexyl-3-(3-{3-propyl-1-[5-(trifluoromethyl)-2-pyridinyl]-1H-pyrazol-4-yl}propoxy)-1H-pyrazol-4-yl]acetic acid]
136 to 138 °C | CCCc1nn(-c2ccc(C(F)(F)F)cn2)cc1CCCOc1c(CC(=O)O)cnn1C [Example 321, [1-methyl-5-(3-{3-propyl-1-[5-(trifluoromethyl)-2-pyridinyl]-1H-pyrazol-4-yl}propoxy)-1H-pyrazol-4-yl]acetic acid]
112 to 113 °C | COc1cccc(CCC(=O)O)c1OCCCc1cn(-c2ccc(C(F)(F)F)cn2)nc1C(C)C [Example 323, 3-[2-(3-{3-isopropyl-1-[5-(trifluoromethyl)-2-pyridinyl]-1H-pyrazol-4-yl}propoxy)-3-methoxyphenyl]propanoic acid]
93 to 94 °C | COc1ccc(CCC(=O)O)cc1OCCCc1cn(-c2ccc(C(F)(F)F)cn2)nc1C(C)C [Example 324, 3-[3-(3-{3-isopropyl-1-[5-(trifluoromethyl)-2-pyridinyl]-1H-pyrazol-4-yl}propoxy)-4-methoxyphenyl]propanoic acid]
137 to 138 °C | Cn1ncc(CC(=O)O)c1OCCCc1cn(-c2ccc(C(F)(F)F)cn2)nc1C1CCCCC1 [Example 325, [5-(3-{3-cyclohexyl-1-[5-(trifluoromethyl)-2-pyridinyl]-1H-pyrazol-4-yl}propoxy)-1-methyl-1H-pyrazol-4-yl]acetic acid]

melting point | SMILES
125 to 126 °C | CCCc1nn(-c2ccc(C(F)(F)F)cn2)cc1CCCOc1c(CC(=O)O)cnn1CC [Example 326, [1-ethyl-5-(3-{3-propyl-1-[5-(trifluoromethyl)-2-pyridinyl]-1H-pyrazol-4-yl}propoxy)-1H-pyrazol-4-yl]acetic acid]
123 to 124 °C | Cc1cnn(CC(=O)O)c1OCCCc1cn(-c2ccc(C(F)(F)F)cn2)nc1C(C)C [Example 327, [5-(3-{3-isopropyl-1-[5-(trifluoromethyl)-2-pyridinyl]-1H-pyrazol-4-yl}propoxy)-4-methyl-1H-pyrazol-1-yl]acetic acid]
111 to 112 °C | CCc1cnn(CC(=O)O)c1OCCCc1cn(-c2ccc(C(F)(F)F)cn2)nc1C(C)C [Example 328, [4-ethyl-5-(3-{3-isopropyl-1-[5-(trifluoromethyl)-2-pyridinyl]-1H-pyrazol-4-yl}propoxy)-1H-pyrazol-1-yl]acetic acid]
145 to 146 °C | CCCc1nn(-c2ccc(C(F)(F)F)cn2)cc1CCCOc1c(C)cnn1CC(=O)O [Example 329, [4-methyl-5-(3-{3-propyl-1-[5-(trifluoromethyl)-2-pyridinyl]-1H-pyrazol-4-yl}propoxy)-1H-pyrazol-1-yl]acetic acid]
124 to 125 °C | CCc1cnn(CC(=O)O)c1OCCCc1cn(-c2ccc(C(F)(F)F)cn2)nc1C(CC)CC [Example 330, [4-ethyl-5-(3-{3-(1-ethylpropyl)-1-[5-(trifluoromethyl)-2-pyridinyl]-1H-pyrazol-4-yl}propoxy)-1H-pyrazol-1-yl]acetic acid]
135 to 136 °C | CCCc1nn(-c2ccc(C(F)(F)F)cn2)cc1CCCOc1c(CC)cnn1CC(=O)O [Example 331, [4-ethyl-5-(3-{3-propyl-1-[5-(trifluoromethyl)-2-pyridinyl]-1H-pyrazol-4-yl}propoxy)-1H-pyrazol-1-yl]acetic acid]
105 to 106 °C | COc1cccc(CC(=O)O)c1OCCCc1cn(-c2ncc(Cl)cc2Cl)nc1C(C)C [Example 336, (2-{3-[1-(3,5-dichloro-2-pyridyl)-3-isopropyl-1H-pyrazol-4-yl]propoxy}-3-methoxyphenyl)acetic acid]
93 to 94 °C | CCc1cccc(CC(=O)O)c1OCCCc1cn(-c2ccc(C(F)(F)F)nn2)nc1C(CC)CC [Example 341, [3-ethyl-2-(3-{3-(1-ethylpropyl)-1-[6-(trifluoromethyl)pyridazin-3-yl]-1H-pyrazol-4-yl}propoxy)phenyl]acetic acid]
114 to 115 °C | COc1cccc(CC(=O)O)c1OCCCc1cn(-c2nnc(C(F)(F)F)s2)nc1C(C)C [Example 344, [2-(3-{3-isopropyl-1-[5-(trifluoromethyl)-1,3,4-thiadiazol-2-yl]-1H-pyrazol-4-yl}propoxy)-3-methoxyphenyl]acetic acid]
94 to 95 °C | COc1cccc(CC(=O)O)c1OCCCc1cn(-c2ccc(C(F)(F)F)cn2)nc1C(C)(C)C [Example 345, [2-(3-{3-tert-butyl-1-[5-(trifluoromethyl)-2-pyridinyl]-1H-pyrazol-4-yl}propoxy)-3-methoxyphenyl]acetic acid]
86 to 87 °C | Cc1cccc(CC(=O)O)c1OCCCc1cn(-c2ccc(C(F)(F)F)cn2)nc1C(C)(C)C [Example 346, [2-(3-{3-tert-butyl-1-[5-(trifluoromethyl)-2-pyridinyl]-1H-pyrazol-4-yl}propoxy)-3-methylphenyl]acetic acid]
98 to 99 °C | CCc1cccc(CC(=O)O)c1OCCCc1cn(-c2ccc(C(F)(F)F)cn2)nc1C(C)(C)C [Example 347, [2-(3-{3-tert-butyl-1-[5-(trifluoromethyl)-2-pyridinyl]-1H-pyrazol-4-yl}propoxy)-3-ethylphenyl]acetic acid]
78 to 79 °C | CCC(CC)c1nn(-c2ccc(C(F)(F)F)cn2)cc1CCCOc1c(CC(=O)O)ccnc1C [Example 348, [3-(3-{3-(1-ethylpropyl)-1-[5-(trifluoromethyl)-2-pyridinyl]-1H-pyrazol-4-yl}propoxy)-2-methyl-4-pyridinyl]acetic acid]
120 to 121 °C | CCC(CC)c1nn(-c2ccc(Br)cn2)cc1CCCOc1c(C)cccc1CC(=O)O [Example 353, (2-{3-[1-(5-bromo-2-pyridinyl)-3-(1-ethylpropyl)-1H-pyrazol-4-yl]propoxy}-3-methylphenyl) acetic acid]
123 °C | CCc1cccc(CC(=O)O)c1OCCCc1cn(-c2ccc(Br)cn2)nc1C(CC)CC [Example 355, (2-{3-[1-(5-bromo-2-pyridinyl)-3-(1-ethylpropyl)-1H-pyrazol-4-yl]propoxy}-3-ethylphenyl)acetic acid]
108 to 109 °C | CC(C)c1cccc(CC(=O)O)c1OCCCc1cn(-c2ccc(C(F)(F)F)cn2)nc1C(C)C [Example 357, [3-isopropyl-2-(3-{3-isopropyl-1-[5-(trifluoromethyl)-2-pyridinyl]-1H-pyrazol-4-yl}propoxy)phenyl]acetic acid]

SMILES | melting point
CCCc1nn(-c2ccc(C(F)(F)F)cn2)cc1CCCCOc1c(CC(=O)O)cccc1OC [Example 295, [3-methoxy-2-(4-{3-propyl-1-[5-(trifluoromethyl)-2-pyridinyl]-1H-pyrazol-4-yl}butoxy)phenyl]acetic acid] | 111 to 112 °C
